Measurements reported in US20250295627A1 (Leibniz-Institut Fuer Neurobiologie, priority 2022, published 2025).

Columns and labels:
GluR1 = type: cell-based, rat
Solubility in water = type: physicochemical
HEK293T cells = assay: Heterologous co-immunoprecipitation from HEK293T cells; type: cell-based; details: 20 nM staurosporine, 3 h
pCREB = assay: Jacob-induced CREB shutoff in hippocampal primary neurons expressing phosphodeficient Jacob; type: cell-based, rat; details: 2 μM OA, 20 min, neurons expressing phosphodeficient Jacob in the nucleus
Experimental: Hippocampal neuronal cultures were transfected with plasmid DNA using Lipofectamine2000 (Thermo Fisher Scientific) following the manufacturer's instructions. For LMO4 knockdown cells were expressing shRNA for 5 days; for Jacob knockdown 4 days. […]. The target sequences for LMO4 and NLS-Jacob knockdown (Spilker et al., 2016) as well as scrambled controls are indicated in key resources table. For Aβ-induced CREB shutoff experiments Aβ oligomers (Anaspec) were prepared as described previously (see previous section, (Grochowska et al., 2017)). Transfected neurons were treated with 500 nM Aβ1-42 or Aβ3 (pE)-42. Nitarsone was diluted in distilled water.

GST-LMO4 = target: T1, GST-LMO4 (Homo sapiens, UniProt P61968); assay: Isothermal titration calorimetry (ITC); details: binding to LMO4, 25 mM Tris buffer pH 7.4, 50 mM NaCl
T1 construct: made in house; host or cells: E. coli BL21 (DE3)
T1 sequence (P61968 1-165): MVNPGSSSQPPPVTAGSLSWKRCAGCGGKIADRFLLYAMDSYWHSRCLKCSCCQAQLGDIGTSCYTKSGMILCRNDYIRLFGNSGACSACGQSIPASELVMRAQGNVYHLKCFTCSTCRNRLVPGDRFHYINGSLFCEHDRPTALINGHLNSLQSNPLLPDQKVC

NC1=N[C@H](O)[C@H]2[C@H]3O[C@]4(O)O[C@@H]([C@@H](O)[C@@]2(N1)[C@@H]4O)[C@]3(O)CO [TTX, tetrodotoxin]
GluR1 surface expression (GluR1): induced upregulation of GluR1 surface expression

CC(NCCO)c1ccc([N+](=O)[O-])cc1 (stereo not shown) [NPEAE, 2-{[1-(4-nitrophenyl)ethyl]amino}ethan-1-ol]
solubility in water (Solubility in water): soluble in water

CN[C@@H]1C[C@H]2O[C@@](C)([C@@H]1OC)n1c3ccccc3c3c4c(c5c6ccccc6n2c5c31)C(=O)NC4 [staurosporine]
Jacob phosphorylation level (S180) (HEK293T cells): decreases Jacob phosphorylation level (S180)
association of Jacob with CREB (HEK293T cells): decreases the association of Jacob with CREB
association of Jacob with LMO4-tagRFP (HEK293T cells): increases its association with LMO4-tagRFP

C=C1[C@@H](O)[C@@H]2O[C@]3(CC[C@H](/C=C/[C@@H](C)[C@@H]4CC(C)=C[C@@]5(O[C@H](C[C@@](C)(O)C(=O)O)CC[C@H]5O)O4)O3)CC[C@H]2O[C@@H]1[C@@H](O)C[C@H](C)[C@H]1O[C@@]2(CCCCO2)CC[C@H]1C [OA, okadaic acid]
Jacob-induced CREB shutoff (pCREB): prevented Jacob-induced CREB shutoff

B1: Jacob: synapto-nuclear protein messenger; recombinant protein titrated against LMO4 in ITC (protein, listed as Homo sapiens)
chain: MGAAASRRRALRSEAMSSVAAKVRAARAFGEYLSQSHPENRNGADHLLADAYSGHDGSPEMQPAPQNKRRLSLVSNGCYEGSLSEEPSIRKPAGEGPQPRVYTISGEPALLPSPEAEAIELAVVKGRRQRHPHHHSQPLRASPGGSREDVSRPCQSWAGSRQGSKECPGCAQLAPGPTPRAFGLDQPPLPETSGRRKKLERMYSVDRVSDDIPIRTWFPKENLFSFQTATTTMQAISVFRGYAERKRRKRENDSASVIQRNFRKHLRMVGSRRVKAQTFAERRERSFSRSWSDPTPMKADTSHDSRDSSDLQSSHCTLDEAFEDLDWDTEKGLEAVACDTEGFVPPKVMLISSKVPKAEYIPTIIRRDDPSIIPILYDHEHATFEDILEEIERKLNVYHKGAKIWKMLIFCQGGPGHLYLLKNKVATFAKVEKEEDMIHFWKRLSRLMSKVNPEPNVIHIMGCYILGNPNGEKLFQNLRTLMTPYRVTFESPLELSAQGKQMIETYFDFRLYRLWKSRQHSKLLDFDDVL
Kd (GST-LMO4): 370 nM
